According to patent EP4818178A1, “PREPARATION AND USE OF PYRIMIDOTHIOPYRANONE KRAS MUTANT PROTEIN INHIBITOR” (Ya Therapeutics Inc, priority 2024, dated 2025):

These compounds were tested against KRasG12D (Homo sapiens, UniProt P01116, G12D) (assay: KRAS inhibitory activity test, TR-FRET (inhibition of binding of KRasG12D to GTP, SOS/GTP nucleotide exchange)). Details: read-out: IC50 values of the compounds for inhibiting KRAS enzymes, G12D.
Type: biochemical
Protocol: • 1. […] Reagent Preparation: • a. Storage Reagents:
Prepare a 1L solution by mixing 20mL of 1000mM HEPES, 20mL of 500mM EDTA, 10mL of 5M sodium chloride, 0.1mL of 100% Tween 20, and 949.9mL of water. Sterilize by filtration and store at 4°C.
Prepare a 1L solution by mixing 20mL of 1000mM HEPES, 10mL of 1000mM magnesium chloride, 30mL of 5M sodium chloride, 0.05mL of 100% Tween 20, and 939.95mL of water. Sterilize by filtration and store at 4°C. 3) KRAS/Bodipy GDP/Tb-SA Mixture: Mix 9.5 µL of 95 µM KRasG12D protein with 440.5 µL of KRAS nucleotide exchange buffer. Incubate at room temperature for 1 hour. Then, mix with 8.4 µL of 17.9 µM Tb-SA, 1.8 µL of 5 mM Bodipy GDP, and 9539.8 µL of KRAS experimental buffer to prepare […]. After mixing, incubate at room temperature for 6 hours and store at -80°C.
• 1) KRAS Enzyme Solution: Mix 73.3 µL of KRAS/Bodipy GDP/Tb-SA mixture with 2126.7 µL of KRAS experimental buffer to prepare a 2200 µL solution. • 2) SOS/GTP Mixture
c. Experimental Procedure: Mix 1.59 µL of 166 µM SOS protein with 198 µL of 100 mM... GTP and 0.41 µL KRAS buffer were prepared to a 2200 µL solution. The stock solution concentration of the control compound was 1 mM, and the stock solution concentration of the test compound was 10 mM. 9 µL of the control compound and the test compound were transferred to a 384-LDV plate. The compound on the LDV plate was 3-fold diluted 10-point using Bravo. 9 nL of the compound on the LDV plate was transferred to the experimental plate using ECHO. 3 µL of a 3 nM Kras/0.5 nM TB-SA/30 nM BodipyGDP mixture and 3 µL of Ras buffer were added to each well of the experimental plate using a Dragonfly autopilot. The plate was centrifuged at 1000 rpm for 1 minute. The plate was incubated at room temperature for 1 hour. 3 µL of 120 nM SOS/9 mM KRAS buffer was added to each well of the experimental plate using a Dragonfly autopilot. The […] was centrifuged at 1000 rpm for 1 minute; the plate was incubated at room temperature for 1 hour; the plate was read and the data were recorded using Envision; the data were analyzed using Excel and Xlfit to calculate the IC50of the test compound. "++++" indicates IC50≤ 10 nM; "+++" indicates 10 nM < IC50≤ 100 nM; "++" indicates 100 nM < IC50≤ 2000 nM; "+" indicates 2000 nM < IC50.

`Cc1cc(O)c(F)c([C@H]2Cc3nc(OC[C@@]45CCCN4C[C@H](F)C5)nc(N4C[C@H]5CC[C@@H](C4)N5)c3CS2(=O)=O)c1C(F)(F)F` [Compound 2B, (7R)-4-((1R,5S)-3,8-diazabicyclo[3.2.1]octane-3-yl)-7-(2-fluoro-3-hydroxy-5-methyl-6-(trifluoromethyl)phenyl)-2-(((2R,7AS)-2-fluorotetrahydro-1H-pyrrolazin-7a(5H)-yl)methoxy)-7,8-dihydro-5H-thiopyrano[4,3-d]pyrimidine-6,6-dioxide] and “7-(3-amino-2-fluoro-5-methyl-6-(trifluoromethyl)phenyl)-4-(3,8-diazabicyclo[3.2.1]o ctane-3-yl)-2-(((S)-2-(difluoromethylene)tetrahydro-1H-pyrrolazin-7a(5H)-yl)methox y)-7,8-dihydro-5H-thiopyrano[4,3-d]pyrimidine-6,6-dioxide [Compound 9]” cannot be ordered by IC50: at most 10 nM for the first, at most 10 nM for the second.

`CC#Cc1cc(N)c(F)c(C2Cc3nc(OC[C@@]45CCCN4C/C(=C\F)C5)nc(N4CC5CCC(C4)N5)c3CS2(=O)=O)c1C(F)(F)F` (stereo partly drawn) [Compound 24, 7-(3-amino-2-fluoro-5-(prop-1-yn-1-yl)-6-(trifluoromethyl)phenyl)-4-(3,8-diazabicyclo[3.2.1]octane-3-yl)-2-(((S)-2-(fluoromethylene)tetrahydro-1H-pyrrolazin-7a(5H)-yl)methoxy)-7,8-dihydro-5H-thiopyrano[4,3-d]pyrimidine-6,6-dioxide] and `Cc1cc(N)c(F)c([C@@H]2Cc3nc(OC[C@@]45CCCN4C[C@H](F)C5)nc(N4C[C@H]5CC[C@@H](C4)N5)c3CS2(=O)=O)c1C(F)(F)F` [Compound 35A, (7S)-7-(3-amino-2-fluoro-5-methyl-6-(trifluoromethyl)phenyl)-4-((1R,5S)-3,8-diazabicyclo[3.2.1]octane-3-yl)-2-(((2R,7AS)-2-fluorotetrahydro-1H-pyrrolazin-7a(5H)-yl)methoxy)-7,8-dihydro-5H-thiopyrano[4,3-d]pyrimidine 6,6-Dioxide] cannot be ordered by IC50: at most 10 nM for the first, at most 10 nM for the second.

`Cc1cc(N)cc([C@@H]2Cc3nc(OC[C@@]45CCCN4C/C(=C\F)C5)nc(N4CC5CCC(C4)N5)c3CS2(=O)=O)c1C(F)(F)F` [Compound 39A] and `Cc1cc(N)c(F)c([C@H]2Cc3nc(OC[C@@]45CCCN4C[C@H](F)C5)nc(N4CCC[C@@](C)(O)C4)c3CS2(=O)=O)c1C(F)(F)F` [Compound 5B, (7R)-7-(3-amino-2-fluoro-5-methyl-6-(trifluoromethyl)phenyl)-2-(((2R,7AS)-2-fluorotetrahydro-1H-pyrrolazin-7a(5H)-yl)methoxy)-4-((R)-3-hydroxy-3-methylpiperidin-1-yl)-7,8-dihydro-5H-thiopyrano[4,3-d]pyrimidine-6,6-dioxide] cannot be ordered by IC50: at most 10 nM for the first, at most 10 nM for the second.

`C=C1CN2CCC[C@@]2(COc2nc3c(c(N4CC5CCC(C4)N5)n2)CS(=O)(=O)C(c2cc(N)cc(C)c2C(F)(F)F)C3)C1` (stereo partly drawn) [Compound 38] and `CC#Cc1cc(N)cc(C2Cc3nc(OC[C@@]45CCCN4CC(=C(F)F)C5)nc(N4CC5CCC(C4)N5)c3CS2(=O)=O)c1C(F)(F)F` (stereo partly drawn) [Compound 31] cannot be ordered by IC50: at most 10 nM for the first, at most 10 nM for the second.

“7-(3-amino-2-fluoro-5-methyl-6-(trifluoromethyl)phenyl)-4-(1R,5S)-3,8-diazabicyclo [3.2.1]octane-3-yl)-2-(((2R,7AS)-2-fluorotetrahydro-1H-pyrrolazin-7a(5H)-yl)methox y)-7,8-dihydro-5H-thiopyrano[4,3-d]pyrimidine-6,6-dioxide [Compound 30]” and `Cc1cc(N)cc(C2Cc3nc(OC[C@@]45CCCN4C/C(=C\F)C5)nc(N4CC5CCC(C4)N5)c3CS2(=O)=O)c1C(F)(F)F` (stereo partly drawn) [Compound 35] cannot be ordered by IC50: at most 10 nM for the first, at most 10 nM for the second.

`CC#Cc1cc(N)c(F)c(C2Cc3nc(OC[C@@]45CCCN4C[C@H](F)C5)nc(N4CC5CCC(C4)N5)c3CS2(=O)=O)c1C(F)(F)F` (stereo partly drawn) [Compound 21, 7-(3-amino-2-fluoro-5-(prop-1-yn-1-yl)-6-(trifluoromethyl)phenyl)-4-(3,8-diazabicyclo[3.2.1]octane-3-yl)-2-(((2R,7AS)-2-fluorotetrahydro-1H-pyrrolazin-7a(5H)-yl)methoxy)-7,8-dihydro-5H-thiopyrano[4,3-d]pyrimidine-6,6-dioxide] and `Cc1cc(N)nc([C@@H]2Cc3nc(OC[C@@]45CCCN4CC(=C(F)F)C5)nc(N4CC5CCC(C4)N5)c3CS2(=O)=O)c1C(F)(F)F` [Compound 18A, (7S)-7-(6-amino-4-methyl-3-(trifluoromethyl)pyridin-2-yl)-2-(((S)-2-(difluoromethylene)tetrahydro-1H-pyrrolazin-7a(5H)-yl)methoxy)-4-(3,8-diazabicyclo[3.2.1]octane-3-yl)-7,8-dihydro-5H-thiopyrano[4,3-d]pyrimidine-6,6-dioxide] cannot be ordered by IC50: at most 10 nM for the first, at most 10 nM for the second.

`Cc1cc(N)c(F)c([C@H]2Cc3nc(OC[C@@]45CCCN4C[C@H](F)C5)nc(N4C[C@H]5CC[C@@H](C4)N5)c3CS2(=O)=O)c1C(F)(F)F` [Compound 1B, (7R)-7-(3-amino-2-fluoro-5-methyl-6-(trifluoromethyl)phenyl)-4-((1R,5S)-3,8-diazabicyclo[3.2.1]octane-3-yl)-2-(((2R,7AS)-2-fluorotetrahydro-1H-pyrrolazin-7a(5H)-yl)methoxy)-7,8-dihydro-5H-thiopyrano[4,3-d]pyrimidine 6,6-Dioxide] and `Cc1cc(N)nc([C@@H]2Cc3nc(OC[C@@]45CCCN4C[C@H](F)C5)nc(N4CCC[C@@](C)(O)C4)c3CS2(=O)=O)c1C(F)(F)F` [Compound 7A, (7S)-7-(6-amino-4-methyl-3-(trifluoromethyl)pyridin-2-yl)-2-(((2R,7AS)-2-fluorotetrahydro-1H-pyrrolazin-7a(5H)-yl)methoxy)-4-((R)-3-hydroxy-3-methylpiperidin-1-yl) -7,8-dihydro-5H-thiopyrano[4,3-d]pyrimidine-6,6-dioxide] cannot be ordered by IC50: 10 to 100 nM for the first, at most 10 nM for the second.

`Cc1cc(N)c(F)c([C@@H]2Cc3nc(OC[C@@]45CCCN4C[C@H](F)C5)nc(N4C[C@H]5CC[C@@H](C4)N5)c3CS2(=O)=O)c1C(F)(F)F` [Compound 30A, (7S)-7-(3-amino-2-fluoro-5-methyl-6-(trifluoromethyl)phenyl)-4-((1R,5S)-3,8-diazabicyclo[3.2.1]octane-3-yl)-2-(((2R,7AS)-2-fluorotetrahydro-1H-pyrrolazin-7a(5H)-yl)methoxy)-7,8-dihydro-5H-thiopyrano[4,3-d]pyrimidine 6,6-Dioxide] and `C=C1CN2CCC[C@@]2(COc2nc3c(c(N4CC5CCC(C4)N5)n2)CS(=O)(=O)C(c2c(F)c(N)cc(C#CC)c2C(F)(F)F)C3)C1` (stereo partly drawn) [Compound 22, 7-(3-amino-2-fluoro-5-(prop-1-yn-1-yl)-6-(trifluoromethyl)phenyl)-4-(3,8-diazabicyclo[3.2.1]octane-3-yl)-2-(((S)-2-(methylene)tetrahydro-1H-pyrrolazin-7a(5H)-yl)methoxy)-7,8-dihydro-5H-thiopyrano[4,3-d]pyrimidine-6,6-dioxide] cannot be ordered by IC50: at most 10 nM for the first, at most 10 nM for the second.

`Cc1cc(O)c(F)c([C@H]2Cc3nc(OC[C@@]45CCCN4C[C@H](F)C5)nc(N4CCC[C@@](C)(O)C4)c3CS2(=O)=O)c1C(F)(F)F` [Compound 6B, (7R)-7-(2-fluoro-3-hydroxy-5-methyl-6-(trifluoromethyl)phenyl)-2-(((2R,7AS)-2-fluorotetrahydro-1H-pyrrolazin-7a(5H)-yl)methoxy)-4-((R)-3-hydroxy-3-methylpiperidin-1-yl)-7,8-dihydro-5H-thiopyrano[4,3-d]pyrimidine-6,6-dioxide] and `Cc1cc(N)nc([C@H]2Cc3nc(OC[C@@]45CCCN4C[C@H](F)C5)nc(N4CCC[C@@](C)(O)C4)c3CS2(=O)=O)c1C(F)(F)F` [Compound 8B, (7R)-7-(6-amino-4-methyl-3-(trifluoromethyl)pyridin-2-yl)-2-(((2R,7AS)-2-fluorotetrahydro-1H-pyrrolazin-7a(5H)-yl)methoxy)-4-((R)-3-hydroxy-3-methylpiperidin-1-yl) -7,8-dihydro-5H-thiopyrano[4,3-d]pyrimidine-6,6-dioxide] fall in the same range of IC50: 10 to 100 nM for the first, 10 to 100 nM for the second.
